# Assay results from patent US8765977B2, “Hydroxylated contrast enhancement agents and imaging method” (General Electric Company, priority 2010, dated 2014).
# Assay: Ascorbic acid oxidation assay
# Format: physicochemical
# Conditions: 20 μM chelate (30 mol %), 67 μM ascorbic acid in PBS, 45 minutes, FIG. 1
# Description: The UV-Vis spectrum of an ascorbic acid solution (67 μM, 12 μg·mL-1) in phosphate buffered saline (PBS) (3 mL) was recorded. The absorbance intensity at λmax=265 nm was observed. An aliquot (30 μL) of iron chelate of ethylenediaminetetraacetic acid (FeEDTA) in PBS (2 mM, 0.7 mg·mL-1) was added to afford a catalytic quantity of FeEDTA (20 μM, 30 mol %) with respect to ascorbic acid. The absorbance intensity (λmax=265 nm) was recorded at intervals of 1 minute for a period of 45 minutes and the data normalized to the t0 absorbance. The experiment was then repeated identically using iron chelate complex FeHBEDP(OH)3 (20 μM, 30 mol %).
structure (smiles),measurement,value
"O=C([O-])CN(CCN(CC(=O)[O-])CC(=O)[O-])CC(=O)[O-].[Fe+3] [FeEDTA, iron chelate of ethylenediaminetetraacetic acid]",consumption of ascorbic acid,consumes ascorbic acid completely
